Assay [1] addresses T1, recombinant human ALK5 (TGF-βR1) protein (Homo sapiens, UniProt P36897).
T1 construct: purchased Life Technologies PR9075A
T1 sequence (P36897 34-503): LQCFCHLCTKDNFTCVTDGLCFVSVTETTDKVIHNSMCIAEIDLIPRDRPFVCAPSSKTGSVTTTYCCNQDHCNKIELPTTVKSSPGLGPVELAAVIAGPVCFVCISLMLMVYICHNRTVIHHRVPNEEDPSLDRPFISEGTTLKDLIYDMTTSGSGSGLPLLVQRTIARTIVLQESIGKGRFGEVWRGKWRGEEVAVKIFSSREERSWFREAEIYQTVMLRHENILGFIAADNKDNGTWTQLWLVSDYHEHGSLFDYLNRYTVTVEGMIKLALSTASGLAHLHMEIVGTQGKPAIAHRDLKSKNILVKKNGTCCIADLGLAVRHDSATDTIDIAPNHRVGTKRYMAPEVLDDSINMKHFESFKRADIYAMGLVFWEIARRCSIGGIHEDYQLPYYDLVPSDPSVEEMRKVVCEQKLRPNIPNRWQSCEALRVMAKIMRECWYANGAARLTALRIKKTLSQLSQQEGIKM
The assay is described as follows: Biochemical ALK5 (TGF-βR1) assay to measure pKi (LANCE Ultra ULight kinase assay). The following applies: apparent pKi from pIC50 by Cheng-Prusoff, read-out: ALK5 pKi (converted). An outline of the steps: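 Compounds (10 μM to 25 pM) were preincubated 60 min at room temperature with enzyme, then reactions were started with ATP (125 μM stock, 5× final) and run 60 min at 37 °C. EDTA-containing Eu-anti-phospho-Topo IIα (Thr1342) antibody stopped the reaction; TR-FRET read at 665 nm. pIC50 from 4-parameter fit, converted to pKi via Cheng-Prusoff.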

In assay [2] the test system is TGF-β-stimulated SMAD3 phosphorylation in BEAS-2B cells. The assay is described as follows: Cellular ALK5 potency assay, inhibition of TGF-β stimulated pSMAD3 formation in BEAS-2B cells. It counts as cell-based. The following applies: Homo sapiens; inhibition of TGF-β stimulated pSMAD3 formation, BEAS-2B cells; read-out: BEAS2B pIC50 (converted). An outline of the steps: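 BEAS-2B human lung epithelial cells pre-treated 1 h at 37° C with compound in HBSS/25 mM HEPES/1% BSA, then stimulated 30 min with 10 ng/mL TGF-β (final). Lysates assayed for pSMAD3 by AlphaLISA; pIC50 from dose-dependent change versus stimulated untreated cells.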

A value given as a limit tells only on which side of the number the result lay.

For `C=C(CN1CCNCC1)c1cnc2ccc(-c3nc[nH]c3-c3cccc(C)n3)cc2c1` [Compound 256, 6-[5-(6-methyl-2-pyridyl)-1H-imidazol-4-yl]-3-[1-(piperazin-1-ylmethyl)vinyl]quinoline], the Ki in assay [1] is 0.0398 to 0.316 nM. In addition, in assay [2], the IC50 is 25.1 to 158 nM.
As for `Cc1cccc(-c2n[nH]cc2-c2ccc3ncc(-c4nc(CCN)c(C)[nH]4)cc3n2)n1` [Compound 671, 2-[5-methyl-2-[6-[3-(6-methyl-2-pyridyl)-1H-pyrazol-4-yl]-1,5-naphthyridin-3-yl]-1H-imidazol-4-yl]ethanamine], the Ki in assay [1] is 0.0398 to 0.316 nM. Also, in assay [2], the IC50 is 200 to 1260 nM.
In the case of `Cc1cccc(-c2[nH]cnc2-c2ccc3ncc(N4CCNC(CC(=O)OC5CCNCC5)C4)cc3c2)n1` (stereo not shown) [Compound 689, 4-piperidyl 2-[4-[6-[5-(6-methyl-2-pyridyl)-1H-imidazol-4-yl]-3-quinolyl]piperazin-2-yl]acetate], the Ki in assay [1] was 0.398 to 3.16 nM. In addition, the IC50 in assay [2] was 200 to 1260 nM.
The matching figures for `Cc1cccc(-c2n[nH]cc2-c2ccc3nccc(CNCCCN4CCOCC4)c3n2)n1` [Compound 815, N-[[6-[3-(6-methyl-2-pyridyl)-1H-pyrazol-4-yl]-1,5-naphthyridin-4-yl]methyl]-3-morpholino-propan-1-amine]: 0.0398 to 0.316 nM and 25.1 to 158 nM.
Taken in the same sequence, the figures for `COC(=O)N1CCc2nnc(-c3cnc4ccc(-c5c[nH]nc5-c5cccc(C)n5)nc4c3)cc2C1` [Compound 613, methyl 3-[6-[3-(6-methyl-2-pyridyl)-1H-pyrazol-4-yl]-1,5-naphthyridin-3-yl]-7,8-dihydro-5H-pyrido[4,3-c]pyridazine-6-carboxylate] were 0.0398 to 0.316 nM and 25.1 to 158 nM.
Taken in the same sequence, the figures for `Cc1cccc(-c2[nH]cnc2-c2ccc3ncc(-c4ccc(C(=O)OC[C@H]5CCCN5)cn4)cc3c2)n1` [Compound 1170, [(2R)-pyrrolidin-2-yl]methyl 6-[6-[5-(6-methyl-2-pyridyl)-1H-imidazol-4-yl]-3-quinolyl]pyridine-3-carboxylate] were 0.0398 to 0.316 nM and 25.1 to 158 nM.
For the compound `Cc1cccc(-c2n[nH]cc2-c2ccc3ncc(NC(=O)CN4CCN(C(C)C)CC4)cc3n2)n1` [Compound 625, 2-(4-isopropylpiperazin-1-yl)-N-[6-[3-(6-methyl-2-pyridyl)-1H-pyrazol-4-yl]-1,5-naphthyridin-3-yl]acetamide], in assay [1], the Ki was 0.0398 to 0.316 nM. The IC50 in assay [2] is 25.1 to 158 nM.
On to `CCOC(=O)CCN(C)c1cnc2ccc(-c3c[nH]nc3-c3cccc(C)n3)nc2c1` [Compound 601, ethyl 3-[methyl-[6-[3-(6-methyl-2-pyridyl)-1H-pyrazol-4-yl]-1,5-naphthyridin-3-yl]amino]propanoate], for which the Ki in assay [1] was 3.98 to 31.6 nM. In addition, the IC50 in assay [2] is 200 to 1260 nM.
The matching figures for `Cc1cccc(-c2[nH]cnc2-c2ccc3ncc(-c4ncc(C(=O)OCC5CNC5)s4)cc3c2)n1` [Compound 1236, azetidin-3-ylmethyl 2-[6-[5-(6-methyl-2-pyridyl)-1H-imidazol-4-yl]-3-quinolyl]thiazole-5-carboxylate]: 0.0398 to 0.316 nM and 25.1 to 158 nM.
Regarding `Cc1nc(-c2nc3ccccn3c2-c2ccc3ncc(N4CCNCC4)cc3c2)ccc1F` [Compound 457, 6-[2-(5-fluoro-6-methyl-2-pyridyl)imidazo[1,2-a]pyridin-3-yl]-3-piperazin-1-yl-quinoline], the Ki in assay [1] is 0.0398 to 0.316 nM. Moreover, the IC50 in assay [2] is 25.1 to 158 nM.
The matching figures for `Cc1cccc(-c2[nH]cnc2-c2ccc3ncc(-c4cncc(C(=O)O[C@H]5CCNC5)c4)cc3c2)n1` [Compound 719, [(3S)-pyrrolidin-3-yl] 5-[6-[5-(6-methyl-2-pyridyl)-1H-imidazol-4-yl]-3-quinolyl]pyridine-3-carboxylate]: 0.0398 to 0.316 nM and 200 to 1260 nM.
On to `Cc1cccc(-c2n[nH]cc2-c2ccc3ncc(N4CC5CNC5C4)cc3c2)n1` (stereo not shown) [Compound 535, 3-(3,6-diazabicyclo[3.2.0]heptan-3-yl)-6-[3-(6-methyl-2-pyridyl)-1H-pyrazol-4-yl]quinoline], for which, in assay [1], the Ki was 0.0398 to 0.316 nM. For the same compound, in assay [2], the IC50 was 25.1 to 158 nM.
In the case of `Cc1nc(-c2n[nH]cc2-c2ccc3ncc(-c4cnn(C(=O)OC(C)C)c4)cc3n2)ccc1F` [Compound 599, isopropyl 4-[6-[3-(5-fluoro-6-methyl-2-pyridyl)-1H-pyrazol-4-yl]-1,5-naphthyridin-3-yl]pyrazole-1-carboxylate], the Ki in assay [1] was below 0.0316 nM. For the same compound, the IC50 in assay [2] is below 20 nM.
Taken in the same sequence, the figures for `Cc1cccc(-c2n[nH]cc2-c2ccc3ncc(-c4cnn(C5COC5)c4)cc3n2)n1` [Compound 669, 2-[3-(6-methyl-2-pyridyl)-1H-pyrazol-4-yl]-7-[1-(oxetan-3-yl)pyrazol-4-yl]-1,5-naphthyridine] were below 0.0316 nM and below 20 nM.
The matching figures for `CCc1cccc(-c2n[nH]cc2-c2ccc3ncc(N4CCC(NC)CC4)cc3n2)n1` [Compound 377, 1-[6-[3-(6-ethyl-2-pyridyl)-1H-pyrazol-4-yl]-1,5-naphthyridin-3-yl]-N-methyl-piperidin-4-amine]: below 0.0316 nM and 25.1 to 158 nM.
The matching figures for `Cc1cccc(-c2n[nH]cc2-c2ccc3ncc(NC4CCCNC4)cc3n2)n1` (stereo not shown) [Compound 543, 6-[3-(6-methyl-2-pyridyl)-1H-pyrazol-4-yl]-N-(3-piperidyl)-1,5-naphthyridin-3-amine]: 0.0398 to 0.316 nM and 25.1 to 158 nM.
Consider `Cc1cccc(-c2nc3ccccn3c2-c2ccc3ncc(N4CCC(N(C)C)CC4)cc3n2)n1` [Compound 683, N,N-dimethyl-1-[6-[2-(6-methyl-2-pyridyl)imidazo[1,2-a]pyridin-3-yl]-1,5-naphthyridin-3-yl]piperidin-4-amine], for which the Ki in assay [1] was 0.0398 to 0.316 nM. For the same compound, in assay [2], the IC50 was 25.1 to 158 nM.
Taken in the same sequence, the figures for `Cc1cccc(-c2[nH]ncc2-c2ccc3ncc(C(=O)NN)cc3n2)n1` [Compound 247, 6-[5-(6-methyl-2-pyridyl)-1H-pyrazol-4-yl]-1,5-naphthyridine-3-carbohydrazide] were 0.0398 to 0.316 nM and 25.1 to 158 nM.
Taken in the same sequence, the figures for `Cc1cccc(-c2[nH]nnc2-c2ccc3ncc(NCCN4CCN(C(C)C)CC4)cc3c2)n1` [Compound 621, N-(2-(4-isopropylpiperazin-1-yl)ethyl)-6-(5-(6-methylpyridin-2-yl)-1H-1,2,3-triazol-4-yl)quinolin-3-amine] were 0.0398 to 0.316 nM and 25.1 to 158 nM.
Taken in the same sequence, the figures for `Cc1cccc(-c2[nH]cnc2-c2ccc3ncc(NCC4CNC4)cc3c2)n1` [Compound 11, N-(azetidin-3-ylmethyl)-6-[5-(6-methyl-2-pyridyl)-1H-imidazol-4-yl]quinolin-3-amine] were 0.0398 to 0.316 nM and 25.1 to 158 nM.
Turning to `Cc1cccc(-c2[nH]cnc2-c2ccc3ncc(C(=O)O)cc3c2)n1` [Compound 796, 6-[5-(6-methyl-2-pyridyl)-1H-imidazol-4-yl]quinoline-3-carboxylic Acid], in assay [1], the Ki was 3.98 to 31.6 nM. The IC50 in assay [2] was 1580 to 10000 nM.
Taken in the same sequence, the figures for `Cc1cccc(-c2[nH]cnc2-c2ccc3ncc(C4=CCN(C(=O)[C@@H]5CCCN5)CC4)cc3c2)n1` [Compound 779, [4-[6-[5-(6-methyl-2-pyridyl)-1H-imidazol-4-yl]-3-quinolyl]-3,6-dihydro-2H-pyridin-1-yl]-[(2S)-pyrrolidin-2-yl]methanone] were 0.0398 to 0.316 nM and 25.1 to 158 nM.
Taken in the same sequence, the figures for `Cc1cccc(-c2[nH]cnc2-c2ccc3ncc(-c4ccc(C(=O)O[C@H]5CCNC5)cc4)cc3c2)n1` [Compound 718, [(3S)-pyrrolidin-3-yl]4-[6-[5-(6-methyl-2-pyridyl)-1H-imidazol-4-yl]-3-quinolyl]benzoate] were 0.0398 to 0.316 nM and 25.1 to 158 nM.
Consider `Cc1cccc(-c2n[nH]cc2-c2ccc3ncc(N4CC(N(C)C)C4)cc3n2)n1` [Compound 368, N,N-dimethyl-1-[6-[3-(6-methyl-2-pyridyl)-1H-pyrazol-4-yl]-1,5-naphthyridin-3-yl]azetidin-3-amine], for which, in assay [1], the Ki was below 0.0316 nM. Also, in assay [2], the IC50 is 25.1 to 158 nM.
In the case of `Cc1cccc(-c2[nH]cnc2-c2ccc3ncc(N4CCC(C(=O)O)CC4)cc3c2)n1` [Compound 213, 1-(6-(5-(6-methylpyridin-2-yl)-1H-imidazol-4-yl)quinolin-3-yl)piperidine-4-carboxylic acid], the Ki in assay [1] was 0.0398 to 0.316 nM. The IC50 in assay [2] is 200 to 1260 nM.
The matching figures for `CN[C@H]1CC[C@H](OC(=O)c2ccnc3ccc(-c4cn[nH]c4-c4cccc(C)n4)cc23)CC1` [Compound 1179, [4-(methylamino)cyclohexyl] 6-[5-(6-methyl-2-pyridyl)-1H-pyrazol-4-yl]quinoline-4-carboxylate]: 0.398 to 3.16 nM and 25.1 to 158 nM.

For the origin of these results see patent US11590116B2 (THERAVANCE BIOPHARMA R&D IP, LLC, priority 2019, dated 2023).
